According to patent US20060074255A1, “3-Methyl-20-epi-vitamin D derivatives” (priority 2000, published 2006):

Biological target: T1, bovine thymus vitamin D receptor (Bos taurus, UniProt Q28037)
T1 construct: Bovine thymus 1α,25-dihydroxyvitamin D3 receptor was purchased from Yamasa Biochemcal; purchased Yamasa Biochemcal (Choshi, Chiba, Japan) lot; 112631; host or cells: bovine thymus (tissue preparation)
T1 sequence (Q28037 1-426): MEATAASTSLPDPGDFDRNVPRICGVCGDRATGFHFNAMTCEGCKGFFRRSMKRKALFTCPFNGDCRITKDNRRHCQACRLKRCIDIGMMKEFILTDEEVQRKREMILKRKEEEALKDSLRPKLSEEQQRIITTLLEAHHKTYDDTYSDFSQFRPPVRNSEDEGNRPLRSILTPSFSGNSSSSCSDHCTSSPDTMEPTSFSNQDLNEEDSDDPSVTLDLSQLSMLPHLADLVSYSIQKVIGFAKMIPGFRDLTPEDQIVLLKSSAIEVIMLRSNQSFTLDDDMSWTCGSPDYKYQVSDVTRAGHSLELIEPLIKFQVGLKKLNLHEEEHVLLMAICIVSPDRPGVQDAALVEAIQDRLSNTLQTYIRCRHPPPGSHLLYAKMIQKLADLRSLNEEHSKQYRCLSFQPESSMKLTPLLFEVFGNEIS
Experiment: Assay for Binding to Bovine Thymus Vitamin D Receptor (VDR)
Settings: relative value with 1α,25-dihydroxyvitamin D3 taken as 100; X=(y/x)×100 from concentrations inhibiting 50% of [3H]-1α,25-dihydroxyvitamin D3 binding to VDR
Method: Assay for Binding to Bovine Thymus Vitamin D Receptor (VDR)
Compounds 14, 16, 19 and 21 synthesized in the above Examples 1 to 4 were tested for their binding properties to bovine thymus vitamin D receptor.
Ethanol solutions of 1α,25-dihydroxyvitamin D3 (the standard substance) and Compounds 14, 16, 19 and 21 were prepared at various concentrations. Bovine thymus 1α,25-dihydroxyvitamin D3 receptor was purchased from Yamasa Biochemcal (Choshi, Chiba, Japan) (lot. 112631) and, just before use, one ampule (approximately 25 mg) of the receptor was dissolved in 55 mL of 0.05 M phosphate buffer (pH 7.4) containing 0.3M KCl and 5 mM dithiothreitol.
Each of the ethanol solutions (50 μl) of the test compounds and 1α,25-dihydroxyvitamin D3 was put into a respective tube with 500 μl (0.23 mg protein) of the receptor solution, pre-incubated at 25° C. for 1 hour, and [^3H]-1α,25-dihydroxyvitamin D3 was added at the final concentration of 0.1 nM, followed by incubation overnight at 4° C. Each of the reaction mixtures was mixed with DCC (dextran coated charcoal), left for 30 minutes at 4° C. and centrifuged at 3000 rpm for ten minutes to separate the bound and free forms of [^3H]-1α,25-dihydroxyvitamin D3. Each of the resultant supernatants (500 μl) was mixed with ACS-II (9.5 ml) (AMERSHAM, England) for radioactivity measurement.
The binding properties of the test compounds expressed in relative value with that of 1α,25-dihydroxyvitamin D3 taken as 100 were shown in Table below. The values were calculated according to the following equation. X=(y/x)×100 • X: relative VDR binding property of a test compound • y: concentration of 1α,25-dihydroxyvitamin D3 that inhibits 50% of the binding of [^3H]-1α,25-dihydroxyvitamin D3 and VDR
x: concentration of the test compound that inhibits 50% of the binding of [^3H]-1α,25-dihydroxyvitamin D3 and VDR

VDR binding properties	Compound
0.035	C=C1/C(=C\C=C2/CCC[C@@]3(C)C2CCC3[C@@H](C)CCCC(C)(C)O)C[C@@](C)(O)C[C@H]1O (stereo partly drawn) [Compound 14, (5Z,7E)-(1R,3R,20S)-3-methyl-9,10-seco-5,7,10(19)-cholestatriene-1,3,25-triol]
70	C=C1/C(=C\C=C2/CCC[C@@]3(C)C2CCC3[C@@H](C)CCCC(C)(C)O)C[C@@](C)(O)C[C@@H]1O (stereo partly drawn) [Compound 16, (5Z,7E)-(1S,3R,20S)-3-methyl-9,10-seco-5,7,10(19)-cholestatriene-1,3,25-triol]
0.24	C=C1/C(=C\C=C2/CCC[C@@]3(C)C2CCC3[C@@H](C)CCCC(C)(C)O)C[C@](C)(O)C[C@@H]1O (stereo partly drawn) [Compound 19, (5Z,7E)-(lS,3S,20S)-3-methyl-9,10-seco-5,7,10(19)-cholestatriene-1,3,25-triol]
<0.01	C=C1/C(=C\C=C2/CCC[C@@]3(C)C2CCC3[C@@H](C)CCCC(C)(C)O)C[C@](C)(O)C[C@H]1O (stereo partly drawn) [Compound 21, (5Z,7E)-(1R,3S,20S)-3-Methyl-9,10-seco-5,7,10(19)-cholestatriene-1,3,25-triol]
